According to patent US12479834B2, “Phenol compound or salt thereof” (TAIHO PHARMACEUTICAL CO., LTD., priority 2019, dated 2025):

Tests used:
[1] = target: T1, G12C K-Ras4B (1-169) (Homo sapiens, UniProt P01116, G12C); experiment: Binding to KRAS G12C mutant, compound binding rate by LC-MS; conditions: final compound concentration 2 μM, 1 μM protein, 2 hours at 25° C.
T1 construct: G12C K-Ras4B (1-169) protein, which was a KRAS G12C mutant; His tag (N, cleaved yes); made in house; host or cells: E. coli BL21 (DE3)
Text: K-Ras4B (1-169) protein was expressed in E. coli strain BL21 (DE3) by synthesizing a nucleotide sequence encoding the amino acid sequence represented by GenPept ID NP_004976 as a sequence optimized for E. coli by use of GeneArt Technology (Life Technologies Corp.) such that the protein was N-terminally His-tagged and fused with a TEV protease recognition sequence (ENLYFQG). The expressed His-tagged K-Ras4B (1-169) was purified through a Ni column, then cleaved at its tag with N-terminally His-tagged TEV protease, and passed through a Ni column again to recover a flow-through fraction, which was further purified by anion-exchange chromatography to obtain the protein. G12C K-Ras4B (1-169) protein, which was a KRAS G12C mutant, was obtained in the same way as in the K-Ras4B(1-169) protein except that glycine at position 12 of the amino acid sequence represented by GenPept ID NP_004976 was mutated to cysteine.
The K-Ras4B (1-169) protein and the G12C K-Ras4B (1-169) protein were mixed and diluted with a buffer solution (1×TBS and 0.1 mM TCEP) to prepare a protein solution containing 1 μM each of the proteins. Each test compound was dissolved at 10 mM in DMSO and further diluted 10-fold with DMSO to make a 1 mM solution. Then, the solution was diluted 5-fold with DMSO to make a 200 μM solution. The 200 μM solution was further diluted 5-fold to make a […] solution. 1 μL of the 40 μM test compound was added to 19 μL of the 1 μM protein solution such that the final compound concentration was 2 μM. The mixture was stored for 2 hours in an incubator of 25° C., and the reaction was terminated by the addition of 80 μL of a 1×TBS solution containing 0.2% formic acid, followed by LC-MS measurement.
The LC-MS measurement was performed by using Xevo G2-S Q-Tof manufactured by Waters Corp., performing reverse-phase chromatography with a desalting column, and obtaining mass spectra of positive ions by electrospray. For the mass spectra, spectra of polyvalent ions were collectively converted to molecular weights by the MaxEnt technique using OpenLynx software, and then, a compound binding rate was obtained from the ratio of […].
The binding rates of test compounds having a final compound concentration of 2 μM for G12C K-Ras4B (1-169) are shown in the table below. The binding rate for G12C K-Ras4B (1-169) is rated “A” for 80% or more, “B” for 60% or more and less than 80%, “C” for 40% or more and less than 60%, “D” for 20% or more and less than 40%, and “E” for less than 20%.

[2] = target: T2, KRAS G12C mutant (Homo sapiens, UniProt P01116, G12C); experiment: Inhibition of SOS1-mediated nucleotide (GDP-GTP) exchange reaction of KRAS G12C mutant, BODIPY FL GDP fluorescence; type: biochemical; conditions: preincubated 25° C. 4 hours with 25 nM KRAS G12C bound with BODIPY FL GDP; SOS1 100 nM, GppNHp 1 μM, 30 minutes
T2 construct: 50 μM G12C K-Ras4B (1-169) protein and 1 mM BODIPY® FL GDP; His tag (N, cleaved yes); made in house; host or cells: E. coli BL21 (DE3)
Text: SOS1 protein was expressed in E. coli strain BL21 (DE3) by synthesizing a nucleotide sequence encoding the amino acid sequence represented by GenPept ID NP_005624 as a sequence optimized for E. coli by use of GeneArt Technology (Life Technologies Corp.) such that the protein was N-terminally His-tagged and fused with a TEV protease recognition sequence (ENLYFQG). The expressed His-tagged SOS1 (564-1049) was purified through a Ni column, then cleaved at its tag with N-terminally His-tagged TEV protease, and passed through a Ni column again to recover a flow-through fraction to obtain the protein.
Each compound was studied for its inhibitory effect on the exchange reaction of GDP into GppNHp in BODIPY® FL bound with the KRAS G12C mutant by fluorescence measurement using the G12C K-Ras4B (1-169) protein and the SOS1 protein.
For the preparation of the KRAS G12C mutant bound with BODIPY® FL GDP, first, 50 μM G12C K-Ras4B (1-169) protein and 1 mM BODIPY® FL GDP (Invitrogen Corp., G22360) were incubated for 1 hour in a buffer solution (20 mM Tris-HCl (pH 7.5), 50 mM NaCl, and 1 mM DTT) in ice in the presence of 2.5 mM EDTA. Then, MgCl2 was added thereto at a final concentration of 10 mM, then the mixture was incubated at room temperature for 30 minutes, and then, the protein was passed through a NAP-5 column for removal of free nucleotides and used for compound evaluation.
For the measurement of the inhibitory activity of compounds against nucleotide exchange reaction, first, the compound of the present invention was serially diluted with DMSO. Subsequently, the serially diluted solution of the compound of the present invention in DMSO (final concentration of DMSO: 5%) and the KRAS G12C mutant (25 nM) bound with BODIPY® FL GDP were added into a reaction buffer solution (20 mM Tris-HCl (pH 7.5), 100 mM NaCl, 1 mM MgCl2, 2 mM DTT, and 0.1% Tween 20), and the mixture was preincubated at 25° C. for 4 hours. Then, Son of Sevenless Homolog 1 (SOS1, amino acid region: 564-1049) and GppNHp (GMPPNP, Jena Bioscience GmbH, NU-401-50) were added thereto at final concentrations of 100 nM and 1 μM, respectively, and the mixture was reacted for 30 minutes. The change in fluorescence intensity of BODIPY® FL (excitation wavelength: 485 nm, fluorescence wavelength: 520 nm) between immediately after the start of reaction and after 30 minutes from the start of reaction was standardized, and then, the compound concentration at which 50% inhibition was achieved was calculated as IC50 (nM) when the signal value for only DMSO was defined as 0% inhibition and the signal value for no addition of GppNHp was defined as 100% inhibition.

SMILES | binding rate for G12C K-Ras4B (1-169) [1] | IC50 [2]
C=CC(=O)N1CC(NC(=O)c2cnc(CNc3cc(C(F)(F)F)c(Cl)cc3O)n2C)C1 [Example 54, N-(1-Acryloylazetidin-3-yl)-2-(((4-chloro-2-hydroxy-5-(trifluoromethyl)phenyl)amino)methyl)-1-methyl-1H-imidazole-5-carboxamide] | C (40% or more and less than 60%) | 420 nM
C=CC(=O)N1CC(NC(=O)c2cnc(CNc3nc([Si](C)(C)C)c(Cl)cc3O)n2C)C1 [Example 84, N-(1-Acryloylazetidin-3-yl)-2-(((5-chloro-3-hydroxy-6-(trimethylsilyl)pyridin-2-yl)amino)methyl)-1-methyl-1H-imidazole-5-carboxamide] | A (80% or more) | 63 nM
C=CC(=O)N1CC(NC(=O)c2ccc(CNc3cc(C(=C)C)c(Cl)cc3O)o2)C1 [Example 47, N-(1-Acryloylazetidin-3-yl)-5-(((4-chloro-2-hydroxy-5-(prop-1-en-2-yl)phenyl)amino)methyl)furan-2-carboxamide] | D (20% or more and less than 40%) | 4740 nM
C=CC(=O)N1CC(NC(=O)c2cnc(CNc3cc([Si](C)(C)C)c(Cl)cc3O)n2C)C1 [Example 62, N-(1-Acryloylazetidin-3-yl)-2-(((4-chloro-2-hydroxy-5-(trimethylsilyl)phenyl)amino)methyl)-1-methyl-1H-imidazole-5-carboxamide] | A (80% or more) | 11 nM
C=CC(=O)N1CC(N(C)C(=O)c2cccc(CNc3cc(C(C)(C)C)c(Cl)cc3O)n2)C1 [Example 30, N-(1-Acryloylazetidin-3-yl)-6-(((5-(tert-butyl)-4-chloro-2-hydroxyphenyl)amino)methyl)-N-methylpicolinamide] | E (less than 20%) | 1690 nM
C=CC(=O)N1CC(NC(=O)c2sc(CNc3cc(C(C)(C)C)c(Cl)cc3O)nc2C(F)(F)F)C1 [Example 24, N-(1-Acryloylazetidin-3-yl)-2-(((5-(tert-butyl)-4-chloro-2-hydroxyphenyl)amino)methyl)-4-(trifluoromethyl)thiazole-5-carboxamide] | C (40% or more and less than 60%) | 780 nM
C=CC(=O)N1CC(NC(=O)c2cnc(CNc3cc4c(cc3O)CCC4(C)C)n2C)C1 [Example 71, N-(1-Acryloylazetidin-3-yl)-2-(((6-hydroxy-3,3-dimethyl-2,3-dihydro-1H-inden-5-yl)amino)methyl)-1-methyl-1H-imidazole-5-carboxamide] | C (40% or more and less than 60%) | 221 nM
C=CC(=O)N1CC(NC(=O)c2cc(CNc3cc(C(C)(C)C)c(Cl)cc3O)ccc2F)C1 [Example 23, N-(1-Acryloylazetidin-3-yl)-5-(((5-(tert-butyl)-4-chloro-2-hydroxyphenyl)amino)methyl)-2-fluorobenzamide] | C (40% or more and less than 60%) | 1000 nM
C=CC(=O)N1CC(NC(=O)c2ccc(CNc3ccc(Cl)c(C(C)(C)C)c3)o2)C1 [Reference Example2, N-(1-Acryloylazetidin-3-yl)-5-(((3-(tert-butyl)-4-chlorophenyl)amino)methyl)furan-2-carboxamide, reference compound] | E (less than 20%) | > 10000 nM
C=CC(=O)N1CC(N(C)C(=O)c2cnc(CNc3cc(C(C)(C)C)c(Cl)cc3O)o2)C1 [Example 28, N-(1-Acryloylazetidin-3-yl)-2-(((5-(tert-butyl)-4-chloro-2-hydroxyphenyl)amino)methyl)-N-methyloxazole-5-carboxamide] | C (40% or more and less than 60%) | 201 nM
C=CC(=O)N1CC(NC(=O)c2cccc(CNc3cc(C(C)(C)C)c(Cl)cc3O)c2)C1 [Example 2, N-(1-Acryloylazetidin-3-yl)-3-(((5-(tert-butyl)-4-chloro-2-hydroxyphenyl)amino)methyl)benzamide] | B (60% or more and less than 80%) | 815 nM

The remaining compounds from weak to strong by IC50 [2], led by results:

binding rate for G12C K-Ras4B (1-169) [1] | IC50 [2] | SMILES
B (60% or more and less than 80%) | 144 nM | C=CC(=O)N1CC(NC(=O)c2cnc(CNc3cc(CC)c(Cl)cc3O)n2C)C1 [Example 61, N-(1-Acryloylazetidin-3-yl)-2-(((4-chloro-5-ethyl-2-hydroxyphenyl)amino)methyl)-1-methyl-1H-imidazole-5-carboxamide]
A (80% or more) | 80 nM | C=CC(=O)N1CC(N(C)C(=O)c2cc(CNc3cc(C(C)(C)C)c(Cl)cc3O)co2)C1 [Example 34, N-(1-Acryloylazetidin-3-yl)-4-(((5-(tert-butyl)-4-chloro-2-hydroxyphenyl)amino)methyl)-N-methylfuran-2-carboxamide]
A (80% or more) | 58 nM | C=CC(=O)N1CC(NC(=O)c2csc(CNc3cc(C(C)(C)C)c(Cl)cc3O)n2)C1 [Example 8, N-(1-Acryloylazetidin-3-yl)-2-(((5-(tert-butyl)-4-chloro-2-hydroxyphenyl)amino)methyl)thiazole-4-carboxamide]
B (60% or more and less than 80%) | 23 nM | C=CC(=O)N1CC(NC(=O)c2cnc(CNc3nc(C(C)(C)C)c(Cl)cc3O)n2C)C1 [Example 83, N-(1-Acryloylazetidin-3-yl)-2-(((6-(tert-butyl)-5-chloro-3-hydroxypyridin-2-yl)amino)methyl)-1-methyl-1H-imidazole-5-carboxamide]
A (80% or more) | 16 nM | C=CC(=O)N1CC(NC(=O)c2c(I)nc(CNc3cc(C(C)(C)C)c(Cl)cc3O)n2C)C1 [Example 27, N-(1-Acryloylazetidin-3-yl)-2-(((5-(tert-butyl)-4-chloro-2-hydroxyphenyl)amino)methyl)-4-iodo-1-methyl-1H-imidazole-5-carboxamide]
